Results: ChEMBL document CHEMBL4396868, “Discovery of Potent, Selective, and Brain-Penetrant 1 H-Pyrazol-5-yl-1 H-pyrrolo[2,3- b]pyridines as Anaplastic Lymphoma Kinase (ALK) Inhibitors” (J Med Chem, 2019)

Legend:
[1] = molecular target: T1, ALK tyrosine kinase receptor (Homo sapiens, UniProt Q9UM73)
Description: Inhibition of human ALK kinase domain (1058 to 1620 residues) expressed in baculovirus expression system using biotin-poly-GT as substrate pre-incubated for 10 mins followed by ATP addition and measured after 60 mins by HTRF method

[2] = molecular target: High affinity nerve growth factor receptor (Homo sapiens, UniProt P04629); assay: Inhibition of N-terminal GST-tagged human TrkA kinase domain (436 to 790 residues) expressed in baculovirus expression system using biotin-poly-GT as substrate pre-incubated for 5 mins followed by ATP addition and measured after 60 mins by alpha screen assay
[3] = molecular target: T1, ALK tyrosine kinase receptor; type: cell-based, HEK293
Description: Inhibition of recombinant human ALK expressed in HEK293 cells assessed as reduction in ALK autophosphorylation at Tyr1604 residue incubated for 60 mins by sandwich ELISA

Homo sapiens = species on record: Homo sapiens; assay: Selectivity ratio of IC50 for N-terminal GST-tagged human TrkA kinase domain (436 to 790 residues) expressed in baculovirus expression system to IC50 for human ALK kinase domain (1058 to 1620 residues) expressed in baculovirus expression system
MDR1 (ABCB1, P-gp) = MDR1 (ABCB1, P-gp) (Homo sapiens, UniProt P08183); assay: Substrate activity at human MDR1 expressed in pig LLC-PK1 cells assessed as efflux ratio of apparent permeability across basolateral to apical over apical to basolateral side at 10 uM after 2 hrs by LC/MS/MS analysis; type: ADME, cell-based
Sequence of MDR1 (ABCB1, P-gp) (P08183 whole entry): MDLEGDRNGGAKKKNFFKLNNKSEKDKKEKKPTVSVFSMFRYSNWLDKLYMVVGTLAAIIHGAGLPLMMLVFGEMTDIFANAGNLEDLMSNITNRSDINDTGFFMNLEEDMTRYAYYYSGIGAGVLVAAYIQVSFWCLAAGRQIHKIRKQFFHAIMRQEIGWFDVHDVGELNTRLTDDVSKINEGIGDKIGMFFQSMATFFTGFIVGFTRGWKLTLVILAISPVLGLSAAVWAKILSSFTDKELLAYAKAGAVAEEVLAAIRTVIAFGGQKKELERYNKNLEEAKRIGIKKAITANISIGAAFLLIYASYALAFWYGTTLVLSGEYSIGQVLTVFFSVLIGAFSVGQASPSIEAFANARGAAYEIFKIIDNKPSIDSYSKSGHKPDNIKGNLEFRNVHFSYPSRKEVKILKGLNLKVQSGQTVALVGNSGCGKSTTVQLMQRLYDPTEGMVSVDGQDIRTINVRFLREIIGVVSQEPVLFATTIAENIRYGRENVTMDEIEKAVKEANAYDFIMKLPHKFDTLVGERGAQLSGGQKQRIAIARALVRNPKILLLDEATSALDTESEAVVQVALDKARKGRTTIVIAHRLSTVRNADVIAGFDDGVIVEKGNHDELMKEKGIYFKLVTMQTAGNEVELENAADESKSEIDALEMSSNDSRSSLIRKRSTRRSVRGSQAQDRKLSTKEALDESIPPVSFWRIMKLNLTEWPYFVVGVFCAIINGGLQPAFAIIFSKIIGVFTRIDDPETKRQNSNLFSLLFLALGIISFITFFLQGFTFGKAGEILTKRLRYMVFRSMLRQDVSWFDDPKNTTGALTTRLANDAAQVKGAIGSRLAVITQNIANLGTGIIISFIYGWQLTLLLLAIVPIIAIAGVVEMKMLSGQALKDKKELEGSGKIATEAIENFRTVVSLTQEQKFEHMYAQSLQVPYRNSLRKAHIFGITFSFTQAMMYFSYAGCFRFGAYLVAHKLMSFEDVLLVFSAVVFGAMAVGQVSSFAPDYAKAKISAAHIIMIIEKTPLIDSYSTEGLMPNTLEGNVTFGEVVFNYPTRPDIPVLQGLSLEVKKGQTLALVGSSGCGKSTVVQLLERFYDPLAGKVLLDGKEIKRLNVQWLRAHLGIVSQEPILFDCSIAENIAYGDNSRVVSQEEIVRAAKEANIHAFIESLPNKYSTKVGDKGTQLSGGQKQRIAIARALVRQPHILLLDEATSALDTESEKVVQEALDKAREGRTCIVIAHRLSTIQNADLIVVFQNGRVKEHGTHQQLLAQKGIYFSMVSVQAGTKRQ

Sequence of High affinity nerve growth factor receptor (P04629 whole entry, the tested form may be a part): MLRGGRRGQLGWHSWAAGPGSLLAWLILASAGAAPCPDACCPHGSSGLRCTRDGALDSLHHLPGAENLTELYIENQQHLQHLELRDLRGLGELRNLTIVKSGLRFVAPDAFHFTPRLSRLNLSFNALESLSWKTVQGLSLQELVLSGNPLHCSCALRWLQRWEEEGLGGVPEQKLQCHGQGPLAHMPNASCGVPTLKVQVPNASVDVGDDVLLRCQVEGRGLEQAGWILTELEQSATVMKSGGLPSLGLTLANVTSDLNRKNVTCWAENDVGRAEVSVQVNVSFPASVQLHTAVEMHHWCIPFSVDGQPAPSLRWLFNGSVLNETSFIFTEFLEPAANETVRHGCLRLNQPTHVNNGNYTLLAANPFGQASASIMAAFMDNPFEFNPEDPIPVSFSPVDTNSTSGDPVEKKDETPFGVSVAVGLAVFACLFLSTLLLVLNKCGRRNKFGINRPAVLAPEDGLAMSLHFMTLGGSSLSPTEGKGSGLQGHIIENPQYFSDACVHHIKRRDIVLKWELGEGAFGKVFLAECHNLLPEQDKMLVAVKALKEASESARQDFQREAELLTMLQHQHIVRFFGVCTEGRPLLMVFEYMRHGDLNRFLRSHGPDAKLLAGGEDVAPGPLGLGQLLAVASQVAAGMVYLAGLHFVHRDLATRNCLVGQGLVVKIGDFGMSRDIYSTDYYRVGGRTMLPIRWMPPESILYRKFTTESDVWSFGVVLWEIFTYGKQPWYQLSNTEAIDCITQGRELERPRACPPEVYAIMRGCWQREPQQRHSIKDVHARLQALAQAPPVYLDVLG
T1 sequence (Q9UM73 whole entry, the tested form may be a part): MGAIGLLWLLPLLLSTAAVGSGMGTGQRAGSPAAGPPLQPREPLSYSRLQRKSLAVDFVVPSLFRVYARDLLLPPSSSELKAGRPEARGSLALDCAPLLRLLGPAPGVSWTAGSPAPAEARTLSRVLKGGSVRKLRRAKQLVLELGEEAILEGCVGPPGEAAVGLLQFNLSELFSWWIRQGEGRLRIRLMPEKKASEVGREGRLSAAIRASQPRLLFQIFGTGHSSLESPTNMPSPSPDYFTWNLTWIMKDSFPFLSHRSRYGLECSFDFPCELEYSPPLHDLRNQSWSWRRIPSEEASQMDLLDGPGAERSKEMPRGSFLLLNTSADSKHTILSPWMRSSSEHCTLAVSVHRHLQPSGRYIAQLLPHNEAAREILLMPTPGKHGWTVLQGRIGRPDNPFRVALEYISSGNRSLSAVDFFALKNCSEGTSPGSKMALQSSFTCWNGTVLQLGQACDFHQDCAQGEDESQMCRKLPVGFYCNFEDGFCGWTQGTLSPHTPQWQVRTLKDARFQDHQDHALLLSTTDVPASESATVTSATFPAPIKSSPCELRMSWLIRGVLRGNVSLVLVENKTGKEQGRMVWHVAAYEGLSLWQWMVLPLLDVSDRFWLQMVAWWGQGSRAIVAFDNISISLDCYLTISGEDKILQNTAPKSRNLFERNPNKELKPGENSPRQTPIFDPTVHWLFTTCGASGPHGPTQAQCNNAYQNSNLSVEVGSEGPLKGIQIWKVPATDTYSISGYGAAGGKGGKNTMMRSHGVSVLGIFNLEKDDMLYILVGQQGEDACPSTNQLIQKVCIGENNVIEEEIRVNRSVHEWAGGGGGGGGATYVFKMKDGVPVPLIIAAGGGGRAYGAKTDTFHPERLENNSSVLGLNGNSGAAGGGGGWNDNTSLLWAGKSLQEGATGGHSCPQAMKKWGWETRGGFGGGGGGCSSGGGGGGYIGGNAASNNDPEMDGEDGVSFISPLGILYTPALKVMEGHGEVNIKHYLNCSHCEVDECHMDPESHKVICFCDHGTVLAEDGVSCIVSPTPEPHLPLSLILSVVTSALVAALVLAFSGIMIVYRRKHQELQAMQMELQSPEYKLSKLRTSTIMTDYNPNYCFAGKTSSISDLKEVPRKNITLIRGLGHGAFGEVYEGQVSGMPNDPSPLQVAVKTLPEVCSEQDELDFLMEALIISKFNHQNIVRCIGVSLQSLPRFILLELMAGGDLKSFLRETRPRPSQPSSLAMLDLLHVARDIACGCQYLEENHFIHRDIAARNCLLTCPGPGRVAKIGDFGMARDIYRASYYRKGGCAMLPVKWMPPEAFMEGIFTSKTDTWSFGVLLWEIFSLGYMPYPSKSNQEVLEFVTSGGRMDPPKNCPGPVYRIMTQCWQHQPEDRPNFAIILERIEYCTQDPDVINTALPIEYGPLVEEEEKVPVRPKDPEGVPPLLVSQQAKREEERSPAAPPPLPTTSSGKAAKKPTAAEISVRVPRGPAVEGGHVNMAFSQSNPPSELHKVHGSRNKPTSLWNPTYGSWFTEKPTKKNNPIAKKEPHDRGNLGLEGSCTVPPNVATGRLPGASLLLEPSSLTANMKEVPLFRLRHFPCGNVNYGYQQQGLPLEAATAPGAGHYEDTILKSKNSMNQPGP

SMILES | IC50 [1] | IC50 [2] | IC50 [3] | Ratio IC50 (Homo sapiens) | efflux ratio at 2 h, 10 µM (MDR1 (ABCB1, P-gp))
Cc1cc(-n2cc(S(C)(=O)=O)c3ccc(N[C@@H](C)c4ccc(F)cn4)nc32)n[nH]1 | 0.0033 µM | 0.045 µM | 0.013 µM |  | 
Cc1cc(-n2cc(C(=O)N3CCOCC3)c3ccc(N[C@@H](C)c4ccc(F)cn4)nc32)[nH]n1 | 0.0025 µM | 1.2 µM | 0.023 µM | 480 | 18
COCc1cn(-c2cc(C)n[nH]2)c2nc(OC(C)c3ccc(F)cn3)ccc12 (racemic; 16) | 2.8 µM | 1.5 µM |  |  | 
Cc1cc(-n2cc(C(=O)N3CCN(C)CC3)c3ccc(N[C@@H](C)c4ccc(F)cn4)nc32)[nH]n1 | 0.0061 µM | 0.25 µM | 0.037 µM |  | 
Cc1cc(-n2cc(C(=O)N3CCO[C@H](C)C3)c3ccc(O[C@H](C)c4ccc(F)cn4)nc32)[nH]n1 (relative stereo) | 0.0046 µM | 3.4 µM | 0.042 µM |  | 1.3
CCS(=O)(=O)c1cn(-c2cc(C)[nH]n2)c2nc(N[C@@H](C)c3ccc(F)cn3)ccc12 | 0.0096 µM | 0.11 µM | 0.037 µM |  | 
Cc1cc(-n2cc(S(=O)(=O)C3COC3)c3ccc(N[C@@H](C)c4ccc(F)cn4)nc32)n[nH]1 | 0.02 µM | 0.73 µM | 0.06 µM |  | 
Cc1cc(-c2cnc3ccc(N[C@H](C)c4ccc(F)cc4F)nn23)[nH]n1 | 1 µM |  |  |  | 
Cc1cc(-n2cc(C(=O)N3CCOCC3)c3ccc(OC(C)c4ccc(F)cn4)nc32)[nH]n1 (racemic) | 0.0062 µM | 1.4 µM | 0.069 µM |  | 3.1
Cc1cc(-n2cc(S(=O)(=O)C(C)C)c3ccc(N[C@@H](C)c4ccc(F)cn4)nc32)n[nH]1 | 0.018 µM | 1.7 µM | 0.27 µM | 94 | 
Cc1cc(-n2ccc3ccc(N[C@@H](C)c4ccc(F)cc4F)nc32)[nH]n1 | 0.014 µM | < 0.01 µM | 0.14 µM |  | 

Other lines, results leading:

IC50 [1] | IC50 [2] | IC50 [3] | Ratio IC50 (Homo sapiens) | efflux ratio at 2 h, 10 µM (MDR1 (ABCB1, P-gp)) | SMILES
0.0032 µM | < 0.01 µM |  |  |  | COCc1cn(-c2cc(C)n[nH]2)c2nc(OC(C)c3ccc(F)cn3)ccc12 (racemic; 15)
0.0019 µM | 0.0027 µM | 0.0094 µM |  |  | Cc1cc(-n2cc(C3=CCOCC3)c3ccc(N[C@@H](C)c4ccc(F)cn4)nc32)[nH]n1
0.0012 µM | 0.015 µM | 0.027 µM |  |  | Cc1cc(-n2cc(S(C)(=O)=O)c3ccc(N[C@@H](C)c4ccc(F)cc4F)nc32)n[nH]1
0.002 µM | 0.0001 µM | 0.006 µM |  |  | Cc1cc(-c2cnc3ccc(N[C@@H](C)c4ccc(F)cc4F)nn23)[nH]n1
0.0018 µM | 0.12 µM | 0.016 µM | 67 |  | Cc1cc(-n2cc(C(=O)N(C)C)c3ccc(N[C@@H](C)c4ccc(F)cn4)nc32)[nH]n1
